Experimental data reported in patent US9133191B2, “Substituted triazine derivatives and use thereof as stimulators of soluble guanylate cyclase” (Bayer Intellectual Property GmbH, priority 2012, dated 2015).

What was measured:
[1] = system: recombinant guanylate cyclase reporter cell line; assay: Effect on a recombinant guanylate cyclase reporter cell line; type: cell-based; conditions: read-out: MEC (minimum effective concentration)
Experimental: B-2. Effect on a Recombinant Guanylate Cyclase Reporter Cell Line
The cellular effect of the compounds according to the invention is determined using a recombinant guanylate cyclase reporter cell line, as described in F. Wunder et al., Anal. Biochem. 339, 104-112 (2005).

aorta rings = assay: Vasorelaxant effect in vitro (phenylephrine-contracted rabbit aorta rings); design: species or system Rabbits; conditions: Oryctolagus cuniculus, phenylephrine contraction, concentration needed to reduce the control value by 50%
Experimental: B-1. Vasorelaxant Effect In Vitro
Rabbits are stunned by a blow to the neck and exsanguinated. The aorta is removed, freed from adhering tissue and divided into rings of a width of 1.5 mm. The rings are placed individually under an initial tension in 5 ml organ baths with Krebs-Henseleit solution which is at 37° C., is gassed with carbogen and has the following composition (in each case mM): sodium chloride: 119; potassium chloride: 4.8; calcium chloride dihydrate: 1; magnesium sulphate heptahydrate: 1.4; potassium dihydrogenphosphate: 1.2; sodium bicarbonate: 25; glucose: 10. The contractile force is determined with Statham UC2 cells, amplified and digitalized using A/D transducers (DAS-1802 HC, Keithley Instruments Munich), and recorded in parallel on linear recorders. To produce a contraction, phenylephrine is added to the bath cumulatively in increasing concentration. After several control cycles, the substance to be investigated is added in each further run in increasing dosage in each case, and the height of the contraction achieved is compared with the height of the contraction reached in the last preceding run. This is used to calculate the concentration needed to reduce the magnitude of the control value by 50% (IC50 value). The standard administration volume is 5 μl; the DMSO content in the bath solution corresponds to 0.1%.

Molecule `Nc1nc(-c2nn(Cc3ccccc3F)c3ncccc23)nnc1-c1cncc(F)c1` [Example 1, 3-[1-(2-Fluorobenzyl)-1H-pyrazolo[3,4-b]pyridin-3-yl]-6-(5-fluoropyridin-3-yl)-1,2,4-triazine-5-amine] has a minimal effective concentration [1] of 0.1 µM.
`Cc1ncccc1-c1nnc(-c2nn(Cc3ccccc3F)c3ncccc23)nc1N` [Example 2, 3-[1-(2-Fluorobenzyl)-1H-pyrazolo[3,4-b]pyridin-3-yl]-6-(2-methylpyridin-3-yl)-1,2,4-triazine-5-amine] gave a minimal effective concentration [1] of 0.1 µM.
In the case of `Cc1noc(C)c1-c1nnc(-c2nn(Cc3ccccc3F)c3ncccc23)nc1N` [Example 3, 6-(3,5-Dimethyl-1,2-oxazol-4-yl)-3-[1-(2-fluorobenzyl)-1H-pyrazolo[3,4-b]pyridin-3-yl]-1,2,4-triazine-5-amine], the minimal effective concentration [1] is reported as 0.3 µM.
`COc1ccc(-c2nnc(-c3nn(Cc4ccccc4F)c4ncccc34)nc2N)cn1` [Example 4, 3-[1-(2-Fluorobenzyl)-1H-pyrazolo[3,4-b]pyridin-3-yl]-6-(6-methoxypyridin-3-yl)-1,2,4-triazine-5-amine] showed a minimal effective concentration [1] of 0.03 µM.
`Nc1nc(-c2nn(Cc3ccccc3F)c3ncccc23)nnc1-c1ccncc1` [Example 5, 3-[1-(2-Fluorobenzyl)-1H-pyrazolo[3,4-b]pyridin-3-yl]-6-(pyridin-4-yl)-1,2,4-triazine-5-amine] showed a minimal effective concentration [1] of 0.1 µM.
Work on `Cn1cc(-c2nnc(-c3nn(Cc4ccccc4F)c4ncccc34)nc2N)cn1` [Example 6, 3-[1-(2-Fluorobenzyl)-1H-pyrazolo[3,4-b]pyridin-3-yl]-6-(1-methyl-1H-pyrazol-4-yl)-1,2,4-triazine-5-amine] yielded a minimal effective concentration [1] of 0.1 µM.
Molecule `Nc1nc(-c2nn(Cc3ccccc3F)c3ncccc23)nnc1-c1cccnc1` [Example 7, 3-[1-(2-Fluorobenzyl)-1H-pyrazolo[3,4-b]pyridin-3-yl]-6-(pyridin-3-yl)-1,2,4-triazine-5-amine] has a minimal effective concentration [1] of 0.1 µM.
Work on `COc1ncccc1-c1nnc(-c2nn(Cc3ccccc3F)c3ncccc23)nc1N` [Example 8, 3-[1-(2-Fluorobenzyl)-1H-pyrazolo[3,4-b]pyridin-3-yl]-6-(2-methoxypyridin-3-yl)-1,2,4-triazine-5-amine] yielded a minimal effective concentration [1] of 0.1 µM.
For `Cc1cc(-c2nnc(-c3nn(Cc4ccccc4F)c4ncccc34)nc2N)ccn1` [Example 9, 3-[1-(2-Fluorobenzyl)-1H-pyrazolo[3,4-b]pyridin-3-yl]-6-(2-methylpyridin-4-yl)-1,2,4-triazine-5-amine], the minimal effective concentration [1] was 0.1 µM.
`Nc1nnc(-c2nn(Cc3ccccc3F)c3ncccc23)nc1N` [Example 10, 3-[1-(2-Fluorobenzyl)-1H-pyrazolo[3,4-b]pyridin-3-yl]-1,2,4-triazine-5,6-diamine] was tested, and the minimal effective concentration [1] was 0.1 µM.
Molecule `CS(=O)(=O)Nc1nnc(-c2nn(Cc3ccccc3F)c3ncccc23)nc1N` [Example 11, N-{5-Amino-3-[1-(2-fluorobenzyl)-1H-pyrazolo[3,4-b]pyridin-3-yl]-1,2,4-triazin-6-yl}methanesulphonamide] has an IC50 (aorta rings) of 2960 nM and a minimal effective concentration [1] of 1 µM.
Work on `COC(=O)Nc1nnc(-c2nn(Cc3ccccc3F)c3ncccc23)nc1N` [Example 12, Methyl {5-amino-3-[1-(2-fluorobenzyl)-1H-pyrazolo[3,4-b]pyridin-3-yl]-1,2,4-triazin-6-yl}carbamate] yielded an IC50 (aorta rings) of 112 nM and a minimal effective concentration [1] of 0.3 µM.
`Oc1nc(-c2nn(Cc3ccccc3F)c3ncccc23)nnc1C(F)(F)F` [Example 13, 3-[1-(2-Fluorobenzyl)-1H-pyrazolo[3,4-b]pyridin-3-yl]-6-(trifluoromethyl)-1,2,4-triazin-5-ol] showed an IC50 (aorta rings) of 2630 nM and a minimal effective concentration [1] of 3 µM.
Molecule `Nc1nc(-c2nn(Cc3ccccc3F)c3ncccc23)nnc1C(F)(F)F` [Example 14, 3-[1-(2-Fluorobenzyl)-1H-pyrazolo[3,4-b]pyridin-3-yl]-6-(trifluoromethyl)-1,2,4-triazine-5-amine] has an IC50 (aorta rings) of 52 nM and a minimal effective concentration [1] of 0.03 µM.
Work on `Oc1nc(-c2nn(Cc3ccccc3F)c3ncccc23)nnc1C1CCCC1` [Example 15, 6-Cyclopentyl-3-[1-(2-fluorobenzyl)-1H-pyrazolo[3,4-b]pyridin-3-yl]-1,2,4-triazin-5-ol] yielded an IC50 (aorta rings) of 1090 nM and a minimal effective concentration [1] of 1 µM.
For `Nc1nc(-c2nn(Cc3ccccc3F)c3ncccc23)nnc1C1CCCC1` [Example 16, 6-Cyclopentyl-3-[1-(2-fluorobenzyl)-1H-pyrazolo[3,4-b]pyridin-3-yl]-1,2,4-triazine-5-amine], the IC50 (aorta rings) was 25 nM and the minimal effective concentration [1] was 0.03 µM.
Molecule `CCCc1nnc(-c2nn(Cc3ccccc3F)c3ncccc23)nc1O` [Example 17, 3-[1-(2-Fluorobenzyl)-1H-pyrazolo[3,4-b]pyridin-3-yl]-6-propyl-1,2,4-triazin-5-ol] has a minimal effective concentration [1] of 1 µM.
Work on `CCCc1nnc(-c2nn(Cc3ccccc3F)c3ncccc23)nc1N` [Example 18, 3-[1-(2-Fluorobenzyl)-1H-pyrazolo[3,4-b]pyridin-3-yl]-6-propyl-1,2,4-triazine-5-amine] yielded an IC50 (aorta rings) of 30 nM and a minimal effective concentration [1] of 0.1 µM.
`CCc1nnc(-c2nn(Cc3ccccc3F)c3ncccc23)nc1O` [Example 19, 6-Ethyl-3-[1-(2-fluorobenzyl)-1H-pyrazolo[3,4-b]pyridin-3-yl]-1,2,4-triazin-5-ol] showed a minimal effective concentration [1] of 1 µM.
In the case of `CCc1nnc(-c2nn(Cc3ccccc3F)c3ncccc23)nc1N` [Example 20, 6-Ethyl-3-[1-(2-fluorobenzyl)-1H-pyrazolo[3,4-b]pyridin-3-yl]-1,2,4-triazine-5-amine], the IC50 (aorta rings) is reported as 30 nM and the minimal effective concentration [1] is reported as 0.1 µM.
Molecule `CC(C)c1nnc(-c2nn(Cc3ccccc3F)c3ncccc23)nc1O` [Example 21, 3-[1-(2-Fluorobenzyl)-1H-pyrazolo[3,4-b]pyridin-3-yl]-6-isopropyl-1,2,4-triazin-5-ol] has an IC50 (aorta rings) of 916 nM and a minimal effective concentration [1] of 0.3 µM.
In the case of `CC(C)c1nnc(-c2nn(Cc3ccccc3F)c3ncccc23)nc1N` [Example 22, 3-[1-(2-Fluorobenzyl)-1H-pyrazolo[3,4-b]pyridin-3-yl]-6-isopropyl-1,2,4-triazine-5-amine], the IC50 (aorta rings) is reported as 27 nM and the minimal effective concentration [1] is reported as 0.1 µM.
Molecule `CC(F)c1nnc(-c2nn(Cc3ccccc3F)c3ncccc23)nc1N` (stereo not shown) [Example 23, 3-[1-(2-Fluorobenzyl)-1H-pyrazolo[3,4-b]pyridin-3-yl]-6-(1-fluoroethyl)-1,2,4-triazine-5-amine] has an IC50 (aorta rings) of 23 nM and a minimal effective concentration [1] of 0.1 µM.
